Assay results reported in patent publication US20080004180A1, “Novel Herbicides Based on Substituted Thien-3-Yl-Sulphonylamino(Thio) Carbonyl-Triazolin(Thi)Ones and 4-Hppd-Inhibitors” (Bayer Cropscience AG, priority 2004, published 2008).

Legend:
Type in all cases: in vivo
Alopecurus myosuroides = test: Herbicidal action against Alopecurus myosuroides, single ingredients and combinations, with Colby expected action
From the text: (§1) A synergistic effect is present in the case of herbicides whenever the herbicidal action of the active ingredient combination is greater than that of the individual active ingredients applied.
(§2) The anticipated action for a given combination of two herbicides can be calculated as follows (cf. COLBY, S. R.: “Calculating synergistic and antagonistic responses of herbicide combinations”, Weeds 15, pages 20-22, 1967):
(§3) If • X=% damage by herbicide A (active ingredient of formula I) at p kg/ha application rate • and • Y=% damage by herbicide B (active ingredient of Formula II) at q kg/ha application rate • and • E=the expected damage of the herbicides A and B at p and q kg/ha application rate, • then E=X+Y−(X*Y/100).

Amaranthus rudis = test: Herbicidal action against Amaranthus rudis, single ingredients and combinations, with Colby expected action
From the text: as §1, §2, §3

Galium aparine = test: Herbicidal action against Galium aparine, single ingredients and combinations, with Colby expected action; details: Table A-3 (first); application rate 3.75 g a.i./ha
From the text: as §1, §2, §3

Question: Which “Action against Alopecurus myosuroides (%)” value (Alopecurus myosuroides; Table A-1, application rate 3.75 g a.i./ha) does the source give for CS(=O)(=O)c1ccc(C(=O)C2C(=O)CCCC2=O)c(Cl)c1COCC1CCCO1 (centres unmarked) [Compound (B.7)] here?
Answer: Its value is 0%.

Question: What about the “Action against Alopecurus myosuroides (%)” value (Alopecurus myosuroides; Table A-3 (second), application rate 7.5 g a.i./ha) of the same compound?
Answer: Its value is 0%.

Question: What about the “Action against Amaranthus rudis (%)” value (Amaranthus rudis; Table A-2, application rate 3.75 g a.i./ha) of the same compound?
Answer: The value was 35%.

Question: And the “Action against Amaranthus rudis (%)” value (Amaranthus rudis; Table A-4, application rate 7.5 g a.i./ha)?
Answer: Its value is 0%.

Question: And the “Action against Galium aparine (%)” value (Galium aparine)?
Answer: The value was 0%.
